Read-outs that look alike come from different tables or passages of the source.
Legend:
[1] = target: class C beta-lactamase of Pseudomonas aeruginosa (Pseudomonas aeruginosa, UniProt P24735); settings: cited from earlier work; for kcat: Pseudomonas aeruginosa
[2] = target: class C beta-lactamase of Citrobacter freundii (Citrobacter freundii, UniProt P05193); settings: cited from earlier work
[3] = system: class C beta-lactamase of Enterobacter cloacae 908R; settings: cited from earlier work
[4] = target: class C beta-lactamase of Serratia marcescens (Serratia marcescens, UniProt P18539); settings: cited from earlier work; for kcat: Serratia marcescens
Chain of class C beta-lactamase of Serratia marcescens (P18539 22-376): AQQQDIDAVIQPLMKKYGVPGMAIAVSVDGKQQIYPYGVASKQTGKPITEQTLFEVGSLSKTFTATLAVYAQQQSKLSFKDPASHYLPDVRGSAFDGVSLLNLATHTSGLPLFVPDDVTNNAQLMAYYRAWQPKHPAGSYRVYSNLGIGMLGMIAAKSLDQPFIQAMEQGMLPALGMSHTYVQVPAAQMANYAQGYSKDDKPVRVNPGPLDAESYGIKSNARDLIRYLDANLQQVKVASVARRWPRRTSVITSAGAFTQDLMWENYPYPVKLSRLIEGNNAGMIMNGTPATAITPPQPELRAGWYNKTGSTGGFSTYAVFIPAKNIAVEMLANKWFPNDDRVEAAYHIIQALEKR

[5] = target: class C beta-lactamase of Escherichia coli K12 (Escherichia coli, UniProt P00811); settings: cited from earlier work
Chain of class C beta-lactamase of Escherichia coli K12 (P00811 20-377): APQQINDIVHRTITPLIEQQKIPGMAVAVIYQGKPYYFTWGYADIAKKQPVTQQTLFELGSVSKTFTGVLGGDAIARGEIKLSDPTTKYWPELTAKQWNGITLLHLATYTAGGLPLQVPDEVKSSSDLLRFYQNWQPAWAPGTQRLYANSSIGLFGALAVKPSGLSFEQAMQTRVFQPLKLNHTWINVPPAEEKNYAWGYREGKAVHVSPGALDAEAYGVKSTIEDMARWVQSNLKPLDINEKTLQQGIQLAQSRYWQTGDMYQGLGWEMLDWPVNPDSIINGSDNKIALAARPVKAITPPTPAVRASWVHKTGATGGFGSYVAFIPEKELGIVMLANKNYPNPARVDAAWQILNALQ

[6] = target: class C beta-lactamase of Enterobacter cloacae P99 (Enterobacter cloacae, UniProt P05364); settings: cited from earlier work
Chain of class C beta-lactamase of Enterobacter cloacae P99 (P05364 21-381): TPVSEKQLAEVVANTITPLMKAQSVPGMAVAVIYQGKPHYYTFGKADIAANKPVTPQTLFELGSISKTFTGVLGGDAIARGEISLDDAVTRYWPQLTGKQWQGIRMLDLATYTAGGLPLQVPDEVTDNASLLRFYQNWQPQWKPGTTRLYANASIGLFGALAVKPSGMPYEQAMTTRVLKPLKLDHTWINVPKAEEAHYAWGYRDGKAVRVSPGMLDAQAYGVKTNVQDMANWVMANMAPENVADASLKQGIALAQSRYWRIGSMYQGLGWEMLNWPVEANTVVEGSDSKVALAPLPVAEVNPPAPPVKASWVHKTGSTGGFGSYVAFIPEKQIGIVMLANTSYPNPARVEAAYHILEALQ

P99 beta-lactamase = P99 beta-lactamase (Enterobacter cloacae, UniProt P05364); type: biochemical
Chain of P99 beta-lactamase (P05364 21-381): as above

Chain of class C beta-lactamase of Citrobacter freundii (P05193 21-381): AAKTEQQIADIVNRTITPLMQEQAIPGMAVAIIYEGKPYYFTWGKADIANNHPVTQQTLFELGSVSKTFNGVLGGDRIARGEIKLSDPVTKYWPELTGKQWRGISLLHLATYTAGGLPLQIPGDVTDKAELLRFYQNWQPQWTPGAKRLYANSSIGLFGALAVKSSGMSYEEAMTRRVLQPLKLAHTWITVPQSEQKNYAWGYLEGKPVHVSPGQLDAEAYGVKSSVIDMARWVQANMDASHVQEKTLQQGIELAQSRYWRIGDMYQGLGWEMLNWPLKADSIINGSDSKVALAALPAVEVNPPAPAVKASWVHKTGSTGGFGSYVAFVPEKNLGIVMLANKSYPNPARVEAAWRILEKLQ
Chain of class C beta-lactamase of Pseudomonas aeruginosa (P24735 27-397): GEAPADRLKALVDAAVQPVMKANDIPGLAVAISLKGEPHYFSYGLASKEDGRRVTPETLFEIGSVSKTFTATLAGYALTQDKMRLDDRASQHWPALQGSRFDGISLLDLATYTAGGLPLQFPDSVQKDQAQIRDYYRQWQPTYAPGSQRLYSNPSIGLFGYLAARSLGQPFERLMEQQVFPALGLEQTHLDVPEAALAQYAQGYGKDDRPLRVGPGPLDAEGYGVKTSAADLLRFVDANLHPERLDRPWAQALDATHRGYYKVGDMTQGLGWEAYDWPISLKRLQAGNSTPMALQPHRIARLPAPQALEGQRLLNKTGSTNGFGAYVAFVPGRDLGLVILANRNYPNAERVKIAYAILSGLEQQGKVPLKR

Row | Molecule | kcat [1] [s⁻¹] | Km [1] [µM] | kcat [2] [s⁻¹] | Km [3] [µM] | kcat [3] [s⁻¹] | kcat [4] [s⁻¹] | Km [4] [µM] | kcat [5] [s⁻¹] | kcat [6] [s⁻¹] | also measured
1 | CC1(C)S[C@@H]2[C@H](NC(=O)Cc3ccccc3)C(=O)N2[C@H]1C(=O)O [Benzylpenicillin] | 76 | 1.7 | 31 | 0.5 | 18 | 75 | 1.7 | 45 | 14 | Km [2]: 0.4 µM; Km [6]: 0.6 µM
2 | O=C(Cc1cccs1)N[C@@H]1C(=O)N2C(C(=O)[O-])=C(C[n+]3ccccc3)CS[C@H]12 [Cephaloridine] | 110 | 20 | 700 | 75 | 600 | 1100 | 275 | 130 | 700 | 
3 | O=C(Cc1cccs1)N[C@@H]1C(=O)N2C(C(=O)O)=C(/C=C/c3ccc([N+](=O)[O-])cc3[N+](=O)[O-])CS[C@H]12 [Nitrocefin] | 742 | 27 | 330 | 23 | 780 | 1240 | 40 | 490 | 780 | Km ([6]; read-out: Km): 25 µM
4 | ampicillin-fluorescein [Ampi-flu] |  |  |  |  |  |  |  |  |  | v0 (standard curve) (P99 beta-lactamase; 0.1 mg/L): 0.2638 ΔAbs482/min; v0/v0max (standard curve) (P99 beta-lactamase; 0.1 mg/L): 98%; v0 (standard curve) (P99 beta-lactamase; 0.5 mg/L): 0.2336 ΔAbs482/min; v0/v0max (standard curve) (P99 beta-lactamase; 0.5 mg/L): 87%; v0 (standard curve) (P99 beta-lactamase; 1.5 mg/L): 0.169 ΔAbs482/min; v0/v0max (standard curve) (P99 beta-lactamase; 1.5 mg/L): 63%; v0 (standard curve) (P99 beta-lactamase; 3 mg/L): 0.1064 ΔAbs482/min; v0/v0max (standard curve) (P99 beta-lactamase; 3 mg/L): 39%; v0 (standard curve) (P99 beta-lactamase; 5 mg/L): 0.063 ΔAbs482/min; v0/v0max (standard curve) (P99 beta-lactamase; 5 mg/L): 23%; v0 (standard curve) (P99 beta-lactamase; 7.5 mg/L): 0.0389 ΔAbs482/min; v0/v0max (standard curve) (P99 beta-lactamase; 7.5 mg/L): 14%; v0 (standard curve) (P99 beta-lactamase; 10 mg/L): 0.025 ΔAbs482/min; v0/v0max (standard curve) (P99 beta-lactamase; 10 mg/L): 9%; v0/v0max due to ampi-flu (P99 beta-lactamase; sample 3, calculated from equation 3): 59%

Reference: patent US9689021B2, “Method for measuring beta-lactam antibiotics” (priority 2011, dated 2017)
